One series concerns VCap cells. The series is described as follows: Inhibition of proliferation of VCap cells (Cell Titer Glo, 6 days). In kind it is cell-based. The following applies: Homo sapiens, VCaP, 144 h. How it is done: Tumor cell line VCap FGC (ATCC catalog number CRL-2876) was cultured in DMEM (Gibco catalog number 11965-092) medium containing 10% FBS (Gibco catalog number 10099-141C), respectively. During the determination, Vcap cells were replaced with DMEM medium containing 5% FBS and 0.1 nM R1881 (Sigma catalog number R0908).
(§1) Vcap FGC cells were inoculated in a 384-well plate (Perkin Elmer catalog number 6007460) at a cell density of 1200 cells/well in a volume of 20 μL/well and incubated overnight in a carbon dioxide incubator (Thermo). The prepared compound solutions of different concentrations were added in a volume of 5 μL/well. The corresponding vehicle control was set at the same time. After being cultured in the incubator for 6 days, the cell plate and the contents were equilibrated to room temperature, and 25 μL of Cell Titer Glor (Promega catalog number G7573) was added to each well, shake and mix well, incubated in dark for 10-30 minutes, and the signal values were detected though Envision microplate reader (PerkinElmer).
The percentage inhibition rate of compound-treated wells was calculated from vehicle control wells on the plate, and the percentage inhibition rate data corresponding to different concentrations were fitted by GraphPad prism, and the IC50 values were calculated by 4-parameter nonlinear logic formula.
A general note: In ATP-based viability assays light output follows the ATP content of the culture.

Another series has as its target T1, androgen receptor (Homo sapiens, UniProt P10275).
T1 construct: endogenous in cells; host or cells: VCaP cells
T1 sequence (P10275 1-920): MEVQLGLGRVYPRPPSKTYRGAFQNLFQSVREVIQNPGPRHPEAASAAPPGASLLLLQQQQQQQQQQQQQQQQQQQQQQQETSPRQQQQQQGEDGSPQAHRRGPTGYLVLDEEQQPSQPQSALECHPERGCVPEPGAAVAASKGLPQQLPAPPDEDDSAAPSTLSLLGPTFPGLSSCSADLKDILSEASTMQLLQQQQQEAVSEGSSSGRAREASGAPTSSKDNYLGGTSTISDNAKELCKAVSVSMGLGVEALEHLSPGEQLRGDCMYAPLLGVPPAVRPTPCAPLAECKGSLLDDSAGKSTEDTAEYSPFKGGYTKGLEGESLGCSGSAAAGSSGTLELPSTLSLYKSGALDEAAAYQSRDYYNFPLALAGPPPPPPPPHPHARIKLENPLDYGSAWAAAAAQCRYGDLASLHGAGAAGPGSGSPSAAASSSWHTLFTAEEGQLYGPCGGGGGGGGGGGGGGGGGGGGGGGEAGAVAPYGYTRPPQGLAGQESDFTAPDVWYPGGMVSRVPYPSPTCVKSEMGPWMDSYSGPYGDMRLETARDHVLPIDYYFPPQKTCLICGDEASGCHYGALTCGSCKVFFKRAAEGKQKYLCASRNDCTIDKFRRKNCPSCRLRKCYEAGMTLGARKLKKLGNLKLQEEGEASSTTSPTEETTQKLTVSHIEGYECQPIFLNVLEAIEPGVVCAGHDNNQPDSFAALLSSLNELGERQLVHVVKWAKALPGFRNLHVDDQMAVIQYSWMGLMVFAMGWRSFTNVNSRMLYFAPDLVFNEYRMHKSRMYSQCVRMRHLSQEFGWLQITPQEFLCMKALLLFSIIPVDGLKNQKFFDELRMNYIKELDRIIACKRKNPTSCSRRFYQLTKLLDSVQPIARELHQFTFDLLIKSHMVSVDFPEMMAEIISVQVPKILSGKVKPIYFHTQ
The series is described as follows: In-Cell-Western determination of androgen receptor degradation in VCaP cells. In kind it is cell-based. As to conditions: 24 hours treatment. How it is done: The determination evaluated the properties of the compounds in Vcap cells. Intracellular androgen receptor was determined by In-Cell-Western according to the determination steps described below.
In poly-D-Lysin pretreated 96-well cell culture plate (Corning 3599), Vcap cells were divided into […] volume, and inoculated with 50,000 cells/well in Vcap cell assay medium [DMEM containing phenol red (Gibco catalog number: 11995065); fetal bovine serum FBS (Gibco catalog number: 10099141C)]. Cells were cultured for at least two days.
1. First treated cells with compound. Compounds were gradient diluted with DMSO and cell culture medium, so that DMSO contained in cell culture plates was diluted to 0.5% —polypropylene plates were used according to the following protocol:
(1)(i) 200× stock plate in DMSO was prepared; (ii) 10 mM stock solution was diluted 1:4 with DMSO (10 μL stock solution+40 μL DMSO)=2000 μM, then entered into row 2; (iii) 1:4 (10 μL protac+40 μL DMSO) gradient dilution was performed in row 2 to row 9, and row 1 was reserved for 2000 μM reference compound and row 10 for DMSO. (iv) A total of 8 concentrations (final concentrations on the 200×plate were 2000 μM, 400 μM, 80 μM, etc.). (i) 3×stock solution in medium was prepared; (ii) 3 μL of 200× stock solution was transferred to 197 μL of culture medium (using 12-channel pipette, from line 1 to line 10), i.e. 3× stock solution plate. (iii) The stock solution plate was mixed evenly. (3) (i) The culture medium of Vcap cells was replaced with fresh culture medium, 100 μL volume culture medium. (ii) The well-mixed 3×stock solution was transferred to the cell culture plate (using 12-channel pipette, and 50 μL of stock solution was transferred from line 1 to line 10). (iii) Cells were cultured for 24 hours.
2. The expression level of intracellular androgen receptor after compound treatment was […] and determined according to the following method.
(1)(i) Equal volume of 8% paraformaldehyde was added to the cell culture plate for cell fixation. The fixing solution in the cell plate was discarded and washed three times with PBS. (ii) Triton solution (1:1000 dilution of the stock solution) was prepared. The solution in the cell plate was discarded, and 200 μL of Triton diluent was added into each well. (iii) 2×blocking solution (1:4 dilution of 10×blocking stock solution) was prepared. The solution in the cell plate was discarded, and 100 μL of 2×blocking solution was added into each well. (iv) Primary antibody solution (Androgen receptor Rabbbit mAb, Cell Signaling Technology catalog number: 5153; 1:1000 dilution) was prepared. The solution in the cell plate was discarded, 100 μL volume of primary antibody diluent was added to each well, and incubated at 4° C. overnight. (v) The primary antibody solution was discarded and the cell plate was washed with 1×Wash buffer. (vi) Secondary antibody solution (GOAT Antirabbit IgG (H+L), HRP, Thermo catalog number: 31460; 1:5000 dilution) was prepared, and 100 μL volume of secondary antibody dilution was added to each well for incubation. (vii) The secondary antibody solution in the cell plate was discarded and the cell plate was washed with 1× Wash buffer. (viii) TMB chromogenic solution (BD catalog number: 550534) was prepared, and 100 μL chromogenic solution was added into each well. (ix) 50 μL volume of stop solution (BD catalog number: 550534) was added to each well. (x) The absorption values at OD 450 nm and 570 nm were read though EnVision. (2)(i) Normalized analysis was performed on the number of cells in each well. The solution in the cell plate was discarded, and washed with wash buffer for three times. (ii) Janus dilution (1:3 dilution) was prepared. (iii) 50 μL volume diluent was added to each well for incubation. (iv) The solution in the plate was discarded and washed with deionized water. […]

The subject of a further series is LNcap FGC cells. The series is described as follows: Inhibition of proliferation of LNcap FGC cells (Cell Titer Glo, 6 days). The series is classed as cell-based. As to conditions: Homo sapiens, LNCaP, 144 h. As for the experimental part: Tumor cell line LNcap FGC (ATCC catalog number CRL-1740) was cultured in RPMI 1640 (Gibco catalog number 11875-093) and DMEM (Gibco catalog number. 11965-092) medium containing 10% FBS (Gibco catalog number 10099-141C), respectively.
as §1, with “LNcap” for “Vcap”, “400” for “1200”, “shook” for “shake”, “mixed” for “mix”, “with” for “though”
The percentage inhibition rate of compound-treated wells was calculated from the vehicle control wells on the plate, and the percentage inhibition rate data corresponding to different concentrations were fitted by GraphPad prism, and the IC50 values were calculated by 4-parameter nonlinear logic formula.

A short description of series [1]: In vivo pharmacokinetics in mice, intravenous injection and oral administration. As to conditions: male CD1 mice. Also noted: species or system mouse. As for the experimental part:
In this experimental example, in vivo pharmacokinetics in mice were evaluated by intravenous injection and oral administration.
Experimental methods and conditions: Male CD1 mice, aged 6-8 weeks, all animals were free access to food and water, and were given a single dose of the compound to be tested at 1 mg/Kg by intravenous injection (solvent 5% DMSO/15% Solutol/80% Saline), at 5 min, 15 min, 30 min, 1 hr, 2 hr, 4 hr, 8 hr, 24 hr, 48 h after drug administration, or oral gavage administration of 10 mg/kg (solvent 5% DMSO/10% Solutol/85% Saline), at 15 min, 30 min, 1 hr, 2 hr, 4 hr, 6 h, 8 hr, 24 hr, 48 h after administration, blood was collected from the orbit, no less than 50 μL for each sample, heparin sodium was used for anticoagulation, and then placed on ice after collection, and centrifuged within 1 hour to separate the plasma for testing. The plasma concentration of the drug was detected by liquid tandem mass spectrometry (LC/MS/MS), and the pharmacokinetic parameters were calculated by Phoenix WinNonlin software.

Series [2] has as its system human prostate cancer VCaP cell subcutaneous xenograft tumor. The series is described as follows: In vivo pharmacodynamic study, human prostate cancer VCaP cell subcutaneous xenograft tumor CB17 SCID mouse model. The following applies: castrated CB17 SCID mice, 24th day after administration. How it is done: Experimental animal: male mice of CB17 SCID strain, aged 6-8 weeks, weighing 18-22 grams, supplier: Beijing Weitong Lihua Laboratory Animal Technology Co., Ltd. Shanghai Branch, animal certificate number: 20170011005577. Animals were reared in the experimental environment for 7 days after arrival and the experiment was started.
Experimental method: Human prostate cancer cell VCaP cells (ATCC-CRL-2876) were cultured in vitro in monolayer, and the culture conditions were DMEM medium with 20% fetal bovine serum, 100 U/mL penicillin and 100 μg/mL streptomycin, cultured in a 5% CO2 incubator at 37° C. Conventional digestion with trypsin-EDTA was performed twice a week for passage. When the cell saturation was 80%-90% and the number reached the requirement, the cells were collected, counted, and inoculated. 0.2 mL (10× 10^6 cells+Matrigel) VCaP cells were subcutaneously inoculated into the left upper limb of each mouse, and castration was performed 33 days after cell inoculation. When the average tumor volume reached 119 mm^3, the drugs were administered in groups, and the doses of compound 14 were set to four groups: 1 mg/kg, 3 mg/kg, 10 mg/kg and 30 mg/kg.
Daily observation of experimental animals: the health status and death of animals were monitored every day. Routine examinations included observing the effects of tumor growth and drug treatment on the daily behavior of animals, such as behavioral activities, food and water intake (visual observation only), and weight changes (body weight measured three times a week), physical signs or other abnormal conditions.
Tumor measurements and experimental indicators: Experimental indicators were to examine whether tumor growth was inhibited, delayed or cured. Tumor diameters were measured with vernier calipers three times a week.
The calculation formula of tumor volume is: V=0.5a×b2, where a and b represented the long diameter and short diameter of the tumor, respectively. The antitumor effect of the compound was evaluated by TGI (%) or relative tumor proliferation rate T/C (%). TGI (%), reflecting the tumor growth inhibition rate. Calculation of TGI (%): TGI (%)=[1−(average tumor volume at the end of administration of a certain treatment group−average tumor volume at the beginning of administration of the treatment group)/(average tumor volume at the end of treatment in the vehicle control group−average tumor volume at the beginning of treatment in the vehicle control group)]×100%. Relative tumor proliferation rate T/C (%): the calculation formula is as follows: T/C %=TRTV/CRTV×100% (TRTV: RTV in the treatment group; CRTV: RTV in the negative control group). The relative tumor volume (RTV) was calculated according to the results of tumor measurement, and the formula is RTV=Vt/V0, where V0 is the average tumor volume measured at the time of group administration (i.e. d0), and Vt is the average tumor volume at a certain measurement, and TRTV and CRTV were taken on the same day. After the experiment, the tumor weight would be detected, and the percentage of T/Cweight would be calculated. Tweight and Cweight represent the tumor weight of the administration group and the vehicle control group, respectively.
Statistical analysis: Statistical analysis included the mean and standard error (SEM) of tumor volume at each time point for each group. […] T-test was used for comparison between two groups, and one-way ANOVA was used for comparison between three or more groups. […]
On the technique in general: Xenograft models place foreign cells or tissue in a host animal.

[3] abbreviates: mouse, intravenous administration 1 mg/kg, plasma.
[4] abbreviates: mouse, oral administration 10 mg/kg, plasma.

A word on the IC50: it is the midpoint of a concentration-inhibition curve. A lower IC50 goes with greater potency. What is called DC50 is the midpoint of the concentration-degradation curve. A higher DC50 goes with degradation only at high concentration. A word on the Dmax: it is the greatest extent of degradation seen. The low end stands for shallow degradation, the high end for deep degradation. Turning to `CC1(C)C(=O)N(c2ccc(C#N)c(Cl)c2)c2ccc(-c3ccc(N4CC(CN5CCN(c6ccc7c(c6)C(=O)N(C6CCC(=O)NC6=O)C7=O)CC5)C4)nc3)cc21` (stereo not drawn) [Compound 9], in the series with VCap cells, the Emax was found to be 97% and the IC50 was determined as 61 nM. Also, it took 121 nM to reach half-maximal degradation on androgen receptor (concentration for half of the maximal degradation of AR in VCaP cells) (DC50). This molecule gave a Dmax at androgen receptor (maximum degradation of AR in VCaP cells) of 56%. In addition, in the series with LNcap FGC cells, the Emax was determined as 100% and the midpoint of inhibition, the IC50, lay at 35.5 nM.
The term AUC(0-inf) denotes total exposure, with the tail of the curve extrapolated. In general, half-life refers to how long it takes for the measured level to halve. Read a low half-life as rapid decline. One may read the Cmax as the maximum level reached in the sampled fluid or tissue. On to `CC1(C)[C@H](NC(=O)c2ccc(N3CCC(CN4CCN(c5ccc6c(c5)C(=O)N(C5CCC(=O)NC5=O)C6=O)CC4)CC3)cc2)C(C)(C)[C@H]1Oc1ccc(C#N)c(Cl)c1` (stereo partly drawn) [Reference substance 1, reference compound], for which the F in series [1] (oral administration 10 mg/kg vs intravenous 1 mg/kg) is listed as 99.0%. In series [1] (setting [3]), this molecule gave an AUC(0-inf) of 5360 ng·h/mL, a clearance of 3.11 mL/min/kg and a half-life of 13.4 h. In series [1] (setting [4]), this molecule had an AUC(0-inf) of 53000 ng·h/mL, a Cmax of 1420 ng/mL and a half-life of 14.4 h. For the same molecule, the “tumor growth inhibition rate (TGI)” value in series [2] (dose 10 mpk) is given as 60%.
`CNC(=O)c1ccc(N2C(=S)N(c3ccc(C#N)c(C(F)(F)F)c3)C(=O)C2(C)C)cc1F` [enzalutamide, reference compound]: the “tumor growth inhibition rate (TGI)” value in series [2] worked out at 45%.

The values are drawn from US12441706B2, “Protein degradation agent compound preparation method and application” (SHANGHAI JEMINCARE PHARMACEUTICALS CO., LTD., priority 2019, dated 2025).
